# Measured values from patent US12304909B2, “Compounds and their use in therapy” (IMPERIAL COLLEGE INNOVATIONS LIMITED, priority 2018, dated 2025).
# Test system: MDA MB 231 cells
# Assay: In vivo study in mice, MDA MB 231 tumour growth
# Parameters: species or system Athymic Nude female mice
# Details: 25 mg/kg twice a day by oral gavage, 10 days
# Protocol: The effect of Example 1 on tumor growth rate in mice was also investigated.
# 5×10^6 MDA MB 231 cells (obtained from Professor Eric Aboagye, Hammersmith Hospital; cell type: triple negative breast cancer) were resuspended in PBS, and 50 μl of cells/PBS was mixed with 50 μl of Matrigel to provide a total volume of 100 μL containing 50% Matrigel. The suspension was injected into the right flank in 16 Athymic Nude female mice. Mice were five to six weeks old and obtained from Charles Rivers Laboratories. All of the experiments were carried out under London Home Office license authority and London Home Office Ethics Committee guidelines. When the tumour mass reached 50 mm3, the animals were randomized (8 per group) and treated for 10 days with PBS solution (control group) or 25 mg/kg of Example 1 suspended in PBS twice a day by oral gavage. Tumor growth rates were analyzed by caliper measurements every day after the start of the treatment period with Example 1 (“NMTi”) or the control (“PBS”). Tumor volume was calculated according to the formula: […]. Weight of the mice was also measured every day after the start of the treatment period with Example 1 (“NMTi”) or the control (“PBS”). Mice were euthanised when the tumor size exceeded 15 mm in diameter in any direction.
structure (smiles),measurement,setting,value
"Cc1c(CCOc2cc(Cl)ccc2-c2ccc3ncc(CCN)n3c2)c(C(=O)N(C)C)nn1C [Example Compound 1, 4-(2-{2-[3-(2-aminoethyl)imidazo[1,2-a]pyridin-6-yl]-5-chlorophenoxy}ethyl)-N,N,1,5-tetramethyl-1H-pyrazole-3-carboxamide]",weight change in the mice,,No weight change
same,tumour growth rate,vs PBS control,reduced
